Reference: patent publication US20170119742A1, “MEDICAMENT FOR PREVENTING AND/OR TREATING STRESS DISEASES” (ONO PHARMACEUTICAL CO., LTD., priority 2014, published 2017)

Legend:
[1] = test system: female diarrhea-type IBS patients; assay: PSS (Perceived Stress Scale) in the clinical trial of Biological example 10; type: in vivo, human; conditions: 60 mg treatment
Description: In the clinical trial of Biological example 10, the therapeutic effect of the compound of the present invention 60 mg treatment on depression and anxiety-related diseases were evaluated using PSS (Perceived Stress Scale) (refer to Journal of Health and Social Behavior, 24, 386-396, 1983), HAM-A (Hamilton Anxiety Scale) (refer to The British journal of medical psychology, 32, 50-55, 1959) and HAM-D (Hamilton Depression scale) (refer to Journal of Neurology, Neurosurgery and Psychiatry, 23, 56-62, 1960) as rating scales.

[2] = test system: fear conditioning stress rats; assay: Antianxiety effect (1): freezing time in fear conditioning stress rats; type: in vivo; conditions: rat, 1 and 3 mg/kg oral, 2 h before 30 min stress load, Dunnett test
Text: Male Crj: CD (SD) rats (Charles River Laboratories Japan, Inc., at the time of evaluation: 8 weeks old) were used to load conditioned fear stress in accordance with Funatsu et al. method (European Journal of Pharmacology, Vol. 573, p. 190-195, 2007). The day before of fear conditioning, the rat was put in an electric shock device which was placed in a soundproof box to acclimate to the evaluation environment. The day of fear conditioning, the rat was put in the electric shock device. The conditioning, 5 seconds electric current load (2.0 mA) and light irradiation (3 pieces of 40 W fluorescent bulbs) followed by 3 seconds warning sound (60 to 70 db), was carried out a total 15 times at 1 minute intervals. The rat of the non-stressed group was given a warning sound and light irradiation without performing the electric current load during fear conditioning. The day after the fear conditioning, the vehicle (0.5 w/v % methylcellulose 400 cP solution) or the compound of the present invention (0.3, 1 or 3 mg/kg) was orally administered to the rat. Two hours after the administration, the rat was put in the electric shock device. […] The behavior of the rat was photographed with a video camera during the 30 minutes of stress load and freezing time was measured.

[3] = target: T1, brain TSPO (Homo sapiens, UniProt P30536); assay: Prediction of brain TSPO occupancy in steady state, once daily in humans (Biological example 9); conditions: trough concentration
T1 construct: from tissue; host or cells: living human brain (PET, healthy adults)
Text: A transition in the plasma concentration of the compound of the present invention, in a steady state when administered once daily, was predicted.

T1 sequence (P30536 whole entry): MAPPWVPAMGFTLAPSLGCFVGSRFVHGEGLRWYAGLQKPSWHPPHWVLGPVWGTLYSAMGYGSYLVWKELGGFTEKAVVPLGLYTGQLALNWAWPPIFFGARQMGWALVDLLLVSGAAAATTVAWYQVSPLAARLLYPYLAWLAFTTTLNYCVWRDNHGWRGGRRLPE

## COc1cc(Cl)ccc1[C@H]1c2[nH]c3cccc(F)c3c2C2(CC2)CN1C(C)=O [the compound of the present invention, (1S)-2-acetyl-1-(4-chloro-2-methoxyphenyl)-5-fluoro-1,2,3,9-tetrahydrospiro[β-carboline-4,1′-cyclopropane]]
[1]; Patient A, baseline 35
  PSS score, 4th week: 19
[1]; Patient A, baseline 35, 4th week
  PSS score, Amount of change from baseline: −16
[1]; Patient B, baseline 23
  PSS score, 4th week: 13
[1]; Patient B, baseline 23, 4th week
  PSS score, Amount of change from baseline: −10
[1]; Patient C, baseline 18
  PSS score, 4th week: 6
[1]; Patient C, baseline 18, 4th week
  PSS score, Amount of change from baseline: −12
[2]
  freezing time vs. vehicle control group: shortened this extended freezing time significantly
[3]; dose 5 mg
  TSPO Occupancy (%) Predicted 5 percentile: 42.8%
  TSPO Occupancy (%) Predicted 95 percentile: 70.3%
  TSPO Occupancy (%) Predicted median: 57.4%
[3]; dose 10 mg
  TSPO Occupancy (%) Predicted 5 percentile: 59.8%
  TSPO Occupancy (%) Predicted 95 percentile: 82.3%
  TSPO Occupancy (%) Predicted median: 73.1%
[3]; dose 20 mg
  TSPO Occupancy (%) Predicted 5 percentile: 74.6%
  TSPO Occupancy (%) Predicted 95 percentile: 90.5%
  TSPO Occupancy (%) Predicted median: 84.4%
[3]; dose 30 mg
  TSPO Occupancy (%) Predicted 5 percentile: 81.6%
  TSPO Occupancy (%) Predicted 95 percentile: 93.4%
  TSPO Occupancy (%) Predicted median: 89.0%
[3]; dose 60 mg
  TSPO Occupancy (%) Predicted 5 percentile: 90.0%
  TSPO Occupancy (%) Predicted 95 percentile: 96.7%
  TSPO Occupancy (%) Predicted median: 94.2%
[3]; dose 100 mg
  TSPO Occupancy (%) Predicted 5 percentile: 95.3%
  TSPO Occupancy (%) Predicted 95 percentile: 98.4%
  TSPO Occupancy (%) Predicted median: 97.4%
